From US9586965B2, “Pyrrolo[2,3-d]pyrimidine compounds as inhibitors of protein kinases” (ACEA BIOSCIENCES INC., priority 2012, dated 2017) come the findings set out here.

Data set [1] relates to A431 (WT) human skin epidermoid carcinoma xenograft. The following applies: for Tumor volume: 100 mpk PO QD. On the procedure: Each mouse was inoculated subcutaneously at the right flank with H1975 cells (5×10^6), HCC827 (5×10^6) and A431 (5×10^6) respectively in 0.2 ml of medium for tumor development. The treatments were started when the tumor size reached approximately 200-250 mm^3. The testing articles were administrated to the mice according to the predetermined regimen as shown in the experimental design table.
All the procedures related to animal handling, care and the treatment in this study were performed according to the guidelines approved by the Institutional Animal Care and Use Committee (IACUC) following the guidance of the Association for Assessment and Accreditation of Laboratory Animal Care (AAALAC). At the time of routine monitoring, the animals were checked for any effects of tumor growth and treatments on normal behavior such as mobility, food and water consumption (by observation), body weight gain/loss (body weights were measured twice weekly), eye/hair matting and any other abnormal effect. Death and observed clinical signs were recorded on the basis of the numbers of animals within each subset.
The major endpoint was to see if the tumor growth can be delayed or mice can be cured. Tumor size was measured twice weekly in two dimensions using a caliper, and the volume was expressed in mm^3 using the formula: V=0.5 a×b^2 where a and b are the long and short diameters of the tumor, respectively. The tumor size was then used for calculations of both T-C and T/C values. T-C was calculated with T as the median time (in days) required for the treatment group tumors to reach a predetermined size (e.g., 1,000 mm^3), and C as the median time (in days) for the control group tumors to reach the same size. The T/C value (in percent) was an indication of antitumor effectiveness; T and C were the mean volume of the treated and control groups, respectively, on a given day. Tumor weight was measured at the study termination. The T/C value (in percent) was calculated where T and C were the mean tumor weights of the treated and control groups, respectively.

Data set [2] concerns the target EGFR (pY1068) in H1975 cell (T790M/L858R) (Homo sapiens (Human), UniProt P00533, L858R/T790M). In words: pEGFR sandwich ELISA assay (Examples B-2, B-3, Table 21). Format: cell-based. The conditions noted are these: for IC50: read-out: IC50 (uM) H1975 T790M/L858R (no EGF stimulation). (In general: In an ELISA, binding on a coated surface is turned into a signal by an enzyme label.)

Data set [3] has as its target EGFR (pY1068) in A431 cell (WT) (Homo sapiens (Human), UniProt P00533). The data set is described as above. Format: cell-based. The conditions noted are these: read-out: IC50 (uM) A431 WT (EGF stimulation).
In data set [4] the target is BTK (Homo sapiens (Human), UniProt Q06187). In words: HotSpot kinase assay. Format: biochemical. The conditions noted are these: Enzymatic Assays; Table 22; unit inferred. On the procedure:
(§1) Assay Description. In vitro profiling protein kinases was performed using the “HotSpot” assay platform. Briefly, specific kinase/substrate pairs along with required cofactors were prepared in reaction buffer. Compounds were delivered into the reaction, followed 15-20 minutes later by addition of a mixture of ATP (Sigma, St. Louis Mo.) and ^33P ATP (Perkin Elmer, Waltham Mass.) to a final concentration of 10 μM. […] IC50 values and curve fits were obtained using Prism (GraphPad Software).
(§2) Reaction Conditions: Buffer Conditions: 20 mM Hepes (pH 7.5), 10 mM MgCl2, 1 mM EGTA, 0.02% Brij35, 0.02 mg/mL BSA, 0.1 mM Na3VO4, 2 mM DTT, and 1% DMSO. ATP concentration: 10 μM. Reaction Time: 2 hours. […] All kinase reactions were performed at 10 uM ATP. Test concentrations are provided below in molar units (M).

Data set [5] addresses JAK2 (Homo sapiens (Human), UniProt O60674). The data set is described as follows: HotSpot kinase assay. It counts as biochemical. The conditions noted are these: Enzymatic Assays; Table 22; unit inferred. On the procedure:
as §1, §2

The target of data set [6] is JAK3 (Homo sapiens (Human), UniProt P52333). The data set is described as follows: HotSpot kinase assay. It counts as biochemical. The following applies: Enzymatic Assays; Table 22; unit inferred. On the procedure: as §1, §2
For data set [7], the target named is human wt JAK3 (Homo sapiens (Human), UniProt P52333). In words: ClariCELL JAK3 cell-based assay. The following applies: Cell-based Assays (CAI) IC50(μM) JAK3, HEK293 transfected with human wt JAK3; 2 hours; repeat runs.
For data set [8], the target named is human wt BTK (Homo sapiens (Human), UniProt Q06187). The data set is described as follows: ClariCELL BTK cell-based assay. The conditions noted are these: Cell-based Assays (CAI) IC50(μM) BTK, HEK293 transfected with human wt BTK; 2 hours; repeat runs.

Molecules are shown by their SMILES. Several values for one entry are separate records, joined by “and”; a condition that tells them apart may be missing. Identical values can stand only once. Like-named read-outs stand apart in the source and are kept apart here. Bounds are passed on as bounds.

Chain of EGFR (pY1068) in H1975 cell (T790M/L858R) (P00533 25-1210 T790M/L858R): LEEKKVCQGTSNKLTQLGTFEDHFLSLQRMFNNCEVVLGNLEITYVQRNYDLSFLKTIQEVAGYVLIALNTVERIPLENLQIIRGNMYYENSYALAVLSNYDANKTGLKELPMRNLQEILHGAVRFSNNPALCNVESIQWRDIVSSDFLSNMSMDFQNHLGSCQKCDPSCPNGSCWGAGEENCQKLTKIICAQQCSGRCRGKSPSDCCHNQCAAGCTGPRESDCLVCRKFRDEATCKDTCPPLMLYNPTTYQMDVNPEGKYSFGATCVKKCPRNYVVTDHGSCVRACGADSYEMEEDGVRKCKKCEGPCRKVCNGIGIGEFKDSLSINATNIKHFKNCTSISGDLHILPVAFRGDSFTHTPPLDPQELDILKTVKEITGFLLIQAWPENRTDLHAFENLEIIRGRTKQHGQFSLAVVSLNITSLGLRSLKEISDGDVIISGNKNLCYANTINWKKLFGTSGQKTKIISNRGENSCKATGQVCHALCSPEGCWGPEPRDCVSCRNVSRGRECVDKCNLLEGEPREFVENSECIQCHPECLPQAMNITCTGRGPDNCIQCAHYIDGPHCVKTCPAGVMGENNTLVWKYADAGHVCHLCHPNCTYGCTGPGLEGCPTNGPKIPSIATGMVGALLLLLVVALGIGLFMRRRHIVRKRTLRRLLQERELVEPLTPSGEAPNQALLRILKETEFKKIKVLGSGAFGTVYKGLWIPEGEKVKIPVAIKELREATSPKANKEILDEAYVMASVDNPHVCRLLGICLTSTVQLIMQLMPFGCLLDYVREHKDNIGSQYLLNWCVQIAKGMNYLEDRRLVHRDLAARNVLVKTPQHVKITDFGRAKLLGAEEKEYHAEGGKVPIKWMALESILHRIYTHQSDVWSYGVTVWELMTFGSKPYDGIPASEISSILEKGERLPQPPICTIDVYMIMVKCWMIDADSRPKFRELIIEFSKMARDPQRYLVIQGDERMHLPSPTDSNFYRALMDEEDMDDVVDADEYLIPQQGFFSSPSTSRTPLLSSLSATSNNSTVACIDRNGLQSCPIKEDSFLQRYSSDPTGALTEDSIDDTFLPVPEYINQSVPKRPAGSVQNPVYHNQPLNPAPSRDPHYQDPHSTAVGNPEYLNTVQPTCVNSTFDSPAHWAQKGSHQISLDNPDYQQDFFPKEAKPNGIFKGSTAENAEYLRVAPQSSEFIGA
Chain of EGFR (pY1068) in A431 cell (WT) (P00533 25-1210): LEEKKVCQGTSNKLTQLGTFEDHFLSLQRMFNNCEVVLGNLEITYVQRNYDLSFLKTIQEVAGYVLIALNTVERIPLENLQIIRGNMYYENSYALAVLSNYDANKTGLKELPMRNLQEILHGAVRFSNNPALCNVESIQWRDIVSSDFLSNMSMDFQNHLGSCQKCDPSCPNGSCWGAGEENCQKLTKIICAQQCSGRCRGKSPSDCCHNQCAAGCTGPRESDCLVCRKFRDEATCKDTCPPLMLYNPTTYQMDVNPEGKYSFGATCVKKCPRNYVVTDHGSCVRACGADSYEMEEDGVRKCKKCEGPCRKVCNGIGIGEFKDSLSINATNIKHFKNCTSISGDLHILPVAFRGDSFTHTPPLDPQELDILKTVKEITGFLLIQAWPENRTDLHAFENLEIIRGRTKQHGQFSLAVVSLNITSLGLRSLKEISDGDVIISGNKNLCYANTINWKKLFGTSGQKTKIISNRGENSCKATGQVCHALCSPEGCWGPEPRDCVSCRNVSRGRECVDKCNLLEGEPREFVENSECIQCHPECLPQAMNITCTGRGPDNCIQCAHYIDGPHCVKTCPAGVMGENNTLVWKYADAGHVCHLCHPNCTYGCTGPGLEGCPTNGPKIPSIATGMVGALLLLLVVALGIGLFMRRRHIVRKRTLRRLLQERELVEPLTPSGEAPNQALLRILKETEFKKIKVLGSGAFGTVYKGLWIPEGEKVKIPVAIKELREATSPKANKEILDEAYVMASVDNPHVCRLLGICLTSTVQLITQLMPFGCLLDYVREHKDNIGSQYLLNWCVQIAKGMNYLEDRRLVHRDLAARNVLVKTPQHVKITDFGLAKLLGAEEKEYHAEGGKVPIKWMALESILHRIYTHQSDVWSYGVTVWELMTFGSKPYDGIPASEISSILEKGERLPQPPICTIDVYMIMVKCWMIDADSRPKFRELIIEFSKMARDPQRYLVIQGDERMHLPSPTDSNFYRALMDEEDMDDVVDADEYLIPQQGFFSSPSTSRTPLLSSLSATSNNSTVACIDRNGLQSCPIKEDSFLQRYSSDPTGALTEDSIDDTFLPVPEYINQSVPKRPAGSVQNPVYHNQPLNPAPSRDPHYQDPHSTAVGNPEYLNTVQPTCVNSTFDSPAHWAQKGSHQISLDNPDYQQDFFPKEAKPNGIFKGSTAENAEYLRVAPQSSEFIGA
Chain of human wt JAK3 (P52333 whole entry): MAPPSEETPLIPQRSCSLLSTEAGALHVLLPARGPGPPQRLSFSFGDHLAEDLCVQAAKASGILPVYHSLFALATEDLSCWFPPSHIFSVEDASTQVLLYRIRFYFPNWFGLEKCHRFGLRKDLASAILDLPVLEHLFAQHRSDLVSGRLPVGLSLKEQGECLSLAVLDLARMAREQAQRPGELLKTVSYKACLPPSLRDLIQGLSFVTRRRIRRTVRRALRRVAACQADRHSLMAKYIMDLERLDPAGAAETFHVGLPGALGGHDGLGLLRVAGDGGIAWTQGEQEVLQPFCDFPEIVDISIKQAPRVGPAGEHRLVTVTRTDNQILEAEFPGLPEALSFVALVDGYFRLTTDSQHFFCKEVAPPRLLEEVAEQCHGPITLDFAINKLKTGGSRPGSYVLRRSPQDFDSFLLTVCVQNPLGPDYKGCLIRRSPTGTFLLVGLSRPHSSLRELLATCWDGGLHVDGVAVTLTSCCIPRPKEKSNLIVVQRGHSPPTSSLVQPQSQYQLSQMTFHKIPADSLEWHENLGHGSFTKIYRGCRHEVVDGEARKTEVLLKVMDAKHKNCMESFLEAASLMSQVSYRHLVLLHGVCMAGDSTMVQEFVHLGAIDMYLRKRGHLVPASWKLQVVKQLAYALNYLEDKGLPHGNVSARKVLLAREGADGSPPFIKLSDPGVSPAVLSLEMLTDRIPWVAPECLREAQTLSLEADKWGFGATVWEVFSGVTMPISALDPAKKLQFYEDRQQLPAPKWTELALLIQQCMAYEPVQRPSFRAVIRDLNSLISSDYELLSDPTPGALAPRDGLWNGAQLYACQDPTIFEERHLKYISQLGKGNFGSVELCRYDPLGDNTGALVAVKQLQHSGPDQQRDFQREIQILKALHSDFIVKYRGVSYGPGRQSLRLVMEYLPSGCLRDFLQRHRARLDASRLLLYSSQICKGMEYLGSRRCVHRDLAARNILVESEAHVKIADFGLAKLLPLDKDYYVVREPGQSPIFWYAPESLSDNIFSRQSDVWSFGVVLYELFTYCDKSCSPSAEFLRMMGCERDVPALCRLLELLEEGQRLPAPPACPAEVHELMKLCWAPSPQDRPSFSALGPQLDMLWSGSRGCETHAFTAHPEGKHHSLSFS
Chain of human wt BTK (Q06187 whole entry): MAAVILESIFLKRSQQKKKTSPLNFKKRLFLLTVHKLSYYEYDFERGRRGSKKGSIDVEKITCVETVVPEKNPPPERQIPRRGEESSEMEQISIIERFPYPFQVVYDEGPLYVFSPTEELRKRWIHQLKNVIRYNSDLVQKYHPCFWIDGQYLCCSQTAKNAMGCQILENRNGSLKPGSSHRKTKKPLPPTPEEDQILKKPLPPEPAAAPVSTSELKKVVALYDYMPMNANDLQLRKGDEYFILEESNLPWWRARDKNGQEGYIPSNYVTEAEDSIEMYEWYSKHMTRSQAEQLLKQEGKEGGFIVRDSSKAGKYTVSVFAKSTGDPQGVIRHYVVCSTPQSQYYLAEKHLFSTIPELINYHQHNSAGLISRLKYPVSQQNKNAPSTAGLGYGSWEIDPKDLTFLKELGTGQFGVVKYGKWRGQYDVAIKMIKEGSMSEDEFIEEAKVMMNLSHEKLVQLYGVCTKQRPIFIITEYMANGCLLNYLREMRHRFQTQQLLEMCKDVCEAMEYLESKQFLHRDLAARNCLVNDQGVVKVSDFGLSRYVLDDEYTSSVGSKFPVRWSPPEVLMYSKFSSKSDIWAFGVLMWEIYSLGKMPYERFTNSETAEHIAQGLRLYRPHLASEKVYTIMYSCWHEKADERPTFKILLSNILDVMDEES
Chain of JAK3 (P52333 781-1124): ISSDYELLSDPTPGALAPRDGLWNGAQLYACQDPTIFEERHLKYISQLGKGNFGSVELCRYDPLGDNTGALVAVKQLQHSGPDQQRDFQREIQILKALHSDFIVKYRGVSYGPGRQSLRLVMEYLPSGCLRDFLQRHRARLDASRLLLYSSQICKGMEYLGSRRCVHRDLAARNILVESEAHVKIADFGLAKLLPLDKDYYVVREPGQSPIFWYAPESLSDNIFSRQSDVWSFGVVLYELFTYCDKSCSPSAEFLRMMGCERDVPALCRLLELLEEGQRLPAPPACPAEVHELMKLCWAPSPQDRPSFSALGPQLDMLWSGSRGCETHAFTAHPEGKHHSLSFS
Chain of BTK (Q06187 whole entry): as the sequence (Q06187 whole entry) above
Chain of JAK2 (O60674 809-1132): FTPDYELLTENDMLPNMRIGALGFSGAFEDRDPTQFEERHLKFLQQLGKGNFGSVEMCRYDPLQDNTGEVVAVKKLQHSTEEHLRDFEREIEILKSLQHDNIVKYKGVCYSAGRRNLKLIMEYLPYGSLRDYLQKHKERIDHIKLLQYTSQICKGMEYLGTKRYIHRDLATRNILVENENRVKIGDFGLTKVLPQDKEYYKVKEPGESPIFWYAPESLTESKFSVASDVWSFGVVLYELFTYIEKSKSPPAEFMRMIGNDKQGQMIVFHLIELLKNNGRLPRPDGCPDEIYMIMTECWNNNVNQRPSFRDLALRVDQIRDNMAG

Consider `COc1cc2ncnc(Nc3ccc(F)c(Cl)c3)c2cc1OCCCN1CCOCC1` [Gefitinib], for which, in data set [1] (100 mg/kg po qd), the “T-C (days) at 300 mm^3” value is reported as greater than 14 days. Further, the “T/C (%)” value in data set [1] (100 mg/kg po qd) stood at 8.7%. Also, the “Tumor Weight (g) at day 23(14)” value in data set [1] (100 mg/kg po qd) came out at 0.13 ± 0.03 g. Further, the “Mouse Weight (g) at day 25(14)” value in data set [1] (100 mg/kg po qd, Mean ± SEM) turned out to be 21.56 ± 0.51 g. Also, the “Tumor Size (mm^3) at day 25(14)” value in data set [1] (100 mg/kg po qd, Mean ± SEM, Table 16) is given as 154 ± 33 mm^3. For the same molecule, the Tumor volume in data set [1] (day 11, Mean ± SEM) worked out at 239.83 ± 23.30 mm^3; in data set [1] (day 18, Mean ± SEM) it was 139.70 ± 26.94 mm^3; in data set [1] (day 21, Mean ± SEM), 139.70 ± 22.07 mm^3; in data set [1] (day 25, Mean ± SEM) it was 154.79 ± 32.62 mm^3.
For `C=CC(=O)Nc1cccc(Oc2nc(Nc3ccc(N4CCN(C)CC4)cc3)nc3c2ccn3CCF)c1` [Compound 7, N-(3-(7-(2-fluoroethyl)-2-(4-(4-methylpiperazin-1-yl)phenylamino)-7H-pyrrolo[2,3-d]pyrimidin-4-yloxy)phenyl)acrylamide], the IC50 in data set [2] was 12.4 µM; in data set [3], greater than 20 µM.
Consider `C=CC(=O)Nc1cccc(Oc2nc(Nc3ccc(N4CCN(C)CC4)cc3)nc3c2ccn3CO)c1` [Compound 4, N-(3-((7-(hydroxymethyl)-2-((4-(4-methylpiperazin-1-yl)phenyl)amino)-7H-pyrrolo[2,3-d]pyrimidin-4-yl)oxy)phenyl)acrylamide], for which, in data set [2], the “Selectivity A431/H1975” value is given as 162.69 and the IC50 turned out to be 0.067 µM. Besides, the IC50 in data set [3] stood at 10.9 µM.
In the same order, the values of `C=CC(=O)Nc1cccc(Oc2nc(Nc3ccc(N4CCN(C)CC4)c(F)c3)nc3c2ccn3CO)c1` [Compound 6, N-(3-(2-(3-fluoro-4-(4-methylpiperazin-1-yl)phenylamino)-7-(hydroxymethyl)-7H-pyrrolo[2,3-d]pyrimidin-4-yloxy)phenyl)acrylamide] are 232.91, 0.0398 µM and 9.27 µM.
For `C=CC(=O)Nc1cccc(Oc2nc(Nc3ccc(N4CCN(C)CC4)nc3)nc3[nH]ccc23)c1` [Compound 2, N-(3-(2-(6-(4-methylpiperazin-1-yl)pyridin-3-ylamino)-7H-pyrrolo[2,3-d]pyrimidin-4-yloxy)phenyl)acrylamide], the “Selectivity A431/H1975” value in data set [2] is 300.00. For the same molecule, the IC50 was 0.001 µM in data set [2]; 0.362 nM in data set [4]; 2060 nM in data set [5]; 0.0365 nM in data set [6]; 0.2 µM and 0.36 µM in data set [7]; 0.012 µM and 0.059 µM in data set [8]. Further, the IC50 in data set [3] is 0.3 µM.
`C=CC(=O)Nc1cccc(Oc2nc(Nc3ccc(NC4CN(CCF)C4)cc3OC)nc3[nH]ccc23)c1` [Compound 34, N-(3-(2-(4-(1-(2-fluoroethyl)azetidin-3-ylamino)-2-methoxyphenylamino)-7H-pyrrolo[2,3-d]pyrimidin-4-yloxy)phenyl)acrylamide]: the “Selectivity A431/H1975” value in data set [2] amounted to 92.95. Moreover, the results for the IC50 in data set [2] and in data set [3] were 0.0217 µM and 2.02 µM, respectively.
The like results for `C=CC(=O)Nc1cccc(Oc2nc(Nc3ccc(N4CCN(C)CC4)nc3)nc3c2ccn3CO)c1` [Compound 5, N-(3-(7-(hydroxymethyl)-2-(6-(4-methylpiperazin-1-yl)pyridin-3-ylamino)-7H-pyrrolo[2,3-d]pyrimidin-4-yloxy)phenyl)acrylamide] were, in that order, 113.17, 0.243 µM and 27.5 µM.
